Legend:
[1] = tested on: bacteria, yeast and fungal; gastrointestinal pathogens; test: In vitro tests and field trials of cimenol ring against gastrointestinal pathogens
Source text: In vitro tests and field trials indicate that cimenol ring is effective against bacteria, yeast and fungal; gastrointestinal pathogens whose mechanisms of action are: […]

[2] = tested on: yeasts and fungi; test: Kill of yeasts and fungi on contact with cimenol ring; type: cell-based; conditions: appropriate concentrations, 10 minutes of contact
Description: On yeasts and fungi, appropriate concentrations of cimenol ring achieves to kill 100% of microorganisms in just 10 minutes of contact. Cell lysis and release of cellular contents into the medium are observed. At electronic microscope, yeasts and fungi are malformed and have fractures in cell walls, especially those found in the proliferation phase.

With cimenol [cimenol ring] the “effectiveness against bacteria, yeast and fungal gastrointestinal pathogens” value [1] was “effective” and the kill of microorganisms [2] was 100%.

— patent publication US10111449B2, “Production procedure for a functional feed based in ellagic acid, cimenol and alliin from vegetable extracts to be used as pronutrient in animal feed” (BIOVET, S.A., priority 2015, dated 2018)
